According to US9896418B2, “Aryl ethers and uses thereof” (Peloton Therapeutics, Inc., priority 2013, dated 2018):

Tests used:
786-O-Hif-Luc cells = assay: Luciferase Assay; assay type: cell-based; settings: about 24 hours, read-out: Mean Luciferease EC50
Protocol: A pool of infected cells were then selected against 2 μg/mL of puromycin (P8833, Sigma) for 10 days followed by limited dilution to select single clones.
Each concentration was tested in triplicate. After about 24 hours, luciferase activity was determined using ONE-Glo Luciferase Assay Reagent (E6110, Promega) following the manufacturer's recommended procedure. EC50 were calculated by using Dotmatics software.

[1] = test system: HIF-2α HIS TAG-PASB Domain; assay: HIF-2α Scintillation Proximity Assay (SPA); assay type: binding
Protocol: The percent inhibition was determined and IC50 values were calculated using the Dotmatics system based on the following equation: % inhibition=[(high control−sample)/(high control−low control)]×100.

786-O cells = assay: VEGF ELISA Assay; assay type: cell-based
Protocol: Each concentration had duplicated wells. About 20 hours later, medium was removed by suction and each well was supplied with 180 μL of growth medium. About 20 μl freshly-made 10× compound stocks were added to each well. […] The EC50 was calculated by GraphPad Prism using the dose-response-inhibition (four parameter) equation. The cell seeded plate was then subjected to CellTiter-Glo luminescence cell viability assay (Promega) by adding 50 μL of Celltiter Glo reagent into each well and shaking the plate for 8 minutes at 550 rpm (Thermomixer R, Eppendorf) then read luminescence signal in plate reader (3 second delay, 0.5 second/well integration time, Synergy 2 multi Detection Microplate reader) immediately.

Compound `C[C@H]1C[C@@H](O)c2c(S(=O)(=O)C(F)F)ccc(Oc3cc(F)cc(Cl)c3)c21` (racemic) [Compound 7a] has an EC50 (786-O-Hif-Luc cells) of 1000 nM.

Compound `C=CCN=S(=O)(c1ccc(Oc2cc(F)cc(C#N)c2)c2c1[C@H](O)C(F)(F)C2)C(F)(F)F` (single isomer, unassigned) [Compound 307] has an IC50 [1] of 370 nM and an EC50 (786-O-Hif-Luc cells) of 1700 nM.

`C=CCN=S(=O)(c1ccc(Oc2cc(F)cc(C#N)c2)c2c1[C@H](O)C(F)(F)C2)C(F)(F)F` (single isomer, unassigned) [Compound 308] showed an IC50 [1] of 68 nM and an EC50 (786-O-Hif-Luc cells) of 690 nM.

With `CS(=O)(=NC#N)c1ccc(Oc2cc(F)cc(C#N)c2)c2c1[C@H](O)C(F)(F)C2` (single isomer, unassigned) [Example 245] the EC50 (786-O cells; 786-O cells) was 160 nM, the IC50 [1] was 32 nM and the EC50 (786-O-Hif-Luc cells) was 61 nM.

For `N#Cc1cc(F)cc(Oc2ccc(S(=N)(=O)CF)c3c2CC(F)(F)[C@H]3O)c1` (single isomer, unassigned) [Example 275], the IC50 [1] was 76 nM and the EC50 (786-O-Hif-Luc cells) was 260 nM.

With `N#CN=S(=O)(CF)c1ccc(Oc2cc(F)cc(C#N)c2)c2c1[C@H](O)[C@H](F)C2` (single isomer, unassigned) [Example 276] the IC50 [1] was 58 nM and the EC50 (786-O-Hif-Luc cells) was 150 nM.

Work on `N#CN=S(=O)(CF)c1ccc(Oc2cc(F)cc(C#N)c2)c2c1[C@H](O)[C@H](F)C2` (single isomer, unassigned) [Example 277] yielded an IC50 [1] of 135 nM and an EC50 (786-O-Hif-Luc cells) of 74 nM.

In the case of `N#CN=S(=O)(CF)c1ccc(Oc2cc(F)cc(C#N)c2)c2c1[C@H](O)C(F)(F)C2` (single isomer, unassigned) [Example 286], the IC50 [1] is reported as 24 nM and the EC50 (786-O-Hif-Luc cells) is reported as 140 nM.

`N#Cc1cc(F)cc(Oc2ccc(S(=N)(=O)C(F)(F)F)c3c2CC(F)(F)[C@H]3O)c1` (single isomer, unassigned) [Example 305] was tested, and the EC50 (786-O cells; Homo sapiens, 786-0, 786-O cells) was 19.5 nM, the IC50 [1] was < 5 nM and the EC50 (786-O-Hif-Luc cells) was 13 nM.

In the case of `N#Cc1cc(F)cc(Oc2ccc(S(=N)(=O)C(F)(F)F)c3c2CC(F)(F)[C@H]3O)c1` (single isomer, unassigned) [Example 306], the EC50 (786-O cells; 786-O cells) is reported as 19.2 nM, the IC50 [1] is reported as < 5 nM and the EC50 (786-O-Hif-Luc cells) is reported as 30 nM.

With `CS(=O)(=NC#N)c1ccc(Oc2cc(F)cc(C#N)c2)c2c1[C@H](O)C(F)(F)[C@@H]2F` (single isomer, unassigned) [Example 317] the EC50 (786-O cells; 786-O cells) was 14 nM, the IC50 [1] was < 5 nM and the EC50 (786-O-Hif-Luc cells) was 12 nM.

In the case of `O=S(=O)(c1ccc(Oc2cc(F)cc(Cl)c2)c(Br)c1CO)C(F)F` [Compound 74, (2-bromo-3-(3-chloro-5-fluorophenoxy)-6-((difluoromethyl)sulfonyl)phenyl)methanol], the EC50 (786-O-Hif-Luc cells) is reported as 490 nM.

In the case of `O=S(=O)(c1ccc(Oc2cc(F)cc(Cl)c2)c(Br)c1)C(F)(F)F` [Compound 116, 2-Bromo-1-(3-chloro-5-fluorophenoxy)-4-((trifluoromethyl)sulfonyl)benzene], the IC50 [1] is reported as 150 nM and the EC50 (786-O-Hif-Luc cells) is reported as 3500 nM.

With `O=S(=O)(c1ccc(Oc2cc(F)cc(Cl)c2)c(Cl)c1)C(F)(F)F` [Compound 128, 2-Chloro-1-(3-chloro-5-fluorophenoxy)-4-((trifluoromethyl)sulfonyl)benzene] the IC50 [1] was 150 nM and the EC50 (786-O-Hif-Luc cells) was 3000 nM.

Work on `N#Cc1cc(F)cc(Oc2ccc(S(=N)(=O)C(F)(F)F)c3c2CCC3O)c1` (stereo not drawn) [Compound 259, 3-Fluoro-5-((1-hydroxy-7-(S-(trifluoromethyl)sulfonimidoyl)-2,3-dihydro-1H-inden-4-yl)oxy)benzonitrile] yielded an IC50 [1] of 1200 nM and an EC50 (786-O-Hif-Luc cells) of 2000 nM.

With `N#Cc1cc(F)cc(Oc2ccc(S(=O)(=O)C(F)(F)F)c3c2CC(F)C3N)c1` (stereo not shown) [Compound 265, 3-((1-amino-2-fluoro-7-((trifluoromethyl)sulfonyl)-2,3-dihydro-1H-inden-4-yl)oxy)-5-fluorobenzonitrile] the IC50 [1] was 90 nM and the EC50 (786-O-Hif-Luc cells) was 900 nM.

`N#Cc1cncc(Oc2ccc(S(=O)(=O)C(F)(F)F)c3c2C[C@@H](F)[C@H]3O)c1` [Example 225, 5-(((1S,2R)-2-Fluoro-1-hydroxy-7-((trifluoromethyl)sulfonyl)-2,3-dihydro-1H-inden-4-yl)oxy)nicotinonitrile] was tested, and the IC50 [1] was < 5 nM.

In the case of `N#Cc1cc(Oc2ccc(S(=O)(=O)C(F)(F)F)c3c2CC(F)(F)[C@H]3O)ccc1F` [Example 228, (S)-5-((2,2-Difluoro-1-hydroxy-7-((trifluoromethyl)sulfonyl)-2,3-dihydro-1H-inden-4-yl)oxy)-2-fluorobenzonitrile], the IC50 [1] is reported as 40 nM.

With `O=S(=O)(c1ccc(Oc2ccc(F)cc2)c2c1[C@H](O)C(F)(F)C2)C(F)(F)F` [Example 230, (S)-2,2-Difluoro-4-(4-fluorophenoxy)-7-((trifluoromethyl)sulfonyl)-2,3-dihydro-1H-inden-1-ol] the IC50 [1] was 28 nM.

For `O=S(=O)(c1ccc(Oc2ccc(F)c(F)c2)c2c1[C@H](O)C(F)(F)C2)C(F)(F)F` [Example 233, (S)-4-(3,4-Difluorophenoxy)-2,2-difluoro-7-((trifluoromethyl)sulfonyl)-2,3-dihydro-1H-inden-1-ol], the IC50 [1] was < 5 nM.

For `N#Cc1cccc(Oc2ccc(S(=O)(=O)C(F)F)c3c2CC(F)(F)[C@H]3O)c1` [Example 236, (S)-3-((7-((difluoromethyl)sulfonyl)-2,2-difluoro-1-hydroxy-2,3-dihydro-1H-inden-4-yl)oxy)benzonitrile], the IC50 [1] was < 5 nM.

`CS(=O)(=NC#N)c1ccc(Oc2cc(F)cc(C#N)c2)c2c1[C@H](O)C(F)(F)C2` (stereo partly shown) [Example 240] gave an IC50 [1] of 26 nM.

`O=S(=O)(c1ccc(Oc2cc(Cl)c[n+]([O-])c2)c2c1[C@H](O)C(F)(F)C2)C(F)(F)F` [Example 260, (S)-3-Chloro-5-((2,2-difluoro-1-hydroxy-7-((trifluoromethyl)sulfonyl)-2,3-dihydro-1H-inden-4-yl)oxy)pyridine 1-oxide] showed an IC50 [1] of 66 nM.

`N#Cc1cc(Oc2ccc(S(=O)(=O)C(F)(F)F)c3c2CC(F)(F)[C@H]3O)c[n+]([O-])c1` [Example 267, (S)-3-cyano-5-((2,2-difluoro-1-hydroxy-7-((trifluoromethyl)sulfonyl)-2,3-dihydro-1H-inden-4-yl)oxy)pyridine 1-oxide] was tested, and the IC50 [1] was 92 nM.

For `CS(=O)(=O)c1ccc(Oc2cc(F)cc(C#N)c2)c2c1[C@H](O)C(F)(Cl)C2` (stereo partly drawn) [Example 270, 3-(((1S)-2-chloro-2-fluoro-1-hydroxy-7-(methylsulfonyl)-2,3-dihydro-1H-inden-4-yl)oxy)-5-fluorobenzonitrile], the IC50 [1] was 97 nM.

`CS(=O)(=O)c1ccc(Oc2cc(F)cc(C#N)c2)c2c1[C@H](O)C(F)(F)[C@@H]2F` [Example 292, 3-fluoro-5-[(1S,3R)-2,2,3-trifluoro-1-hydroxy-7-methylsulfonyl-indan-4-yl]oxy-benzonitrile] was tested, and the IC50 [1] was < 5 nM.

For `CS(=O)(=NC#N)c1ccc(Oc2cc(F)cc(C#N)c2)c2c1[C@H](O)[C@H](F)C2` (stereo partly drawn) [Example 302, N-(((2R,3S)-7-(3-cyano-5-fluorophenoxy)-2-fluoro-3-hydroxy-2,3-dihydro-1H-inden-4-yl)(methyl)(oxo)-λ^6-sulfanylidene)cyanamide], the IC50 [1] was 63 nM.

Compound `N#Cc1cncc(Oc2ccc(C(F)(F)F)c3c2CC(F)(F)[C@H]3O)c1` [Example 303, 5-[(1S)-2,2-difluoro-1-hydroxy-7-(trifluoromethyl)indan-4-yl]oxypyridine-3-carbonitrile] has an IC50 [1] of 37 nM.

With `CS(=O)(=O)c1ccc(Oc2cc(F)cc(Br)c2)c2c1[C@H](O)C(F)(F)C2` [Example 304, (S)-4-(3-bromo-5-fluorophenoxy)-2,2-difluoro-7-(methylsulfonyl)-2,3-dihydro-1H-inden-1-ol] the IC50 [1] was < 5 nM.

With `O=S(=O)(c1ccc(Oc2cncc(F)c2)c2c1[C@H](O)C(F)(F)C2)C(F)(F)F` [Example 309, (S)-2,2-difluoro-4-((5-fluoropyridin-3-yl)oxy)-7-((trifluoromethyl)sulfonyl)-2,3-dihydro-1H-inden-1-ol] the IC50 [1] was < 5 nM.

Compound `O=S(=O)(c1ccc(Oc2cc(F)c[n+]([O-])c2)c2c1[C@H](O)C(F)(F)C2)C(F)(F)F` [Example 310, (S)-3-((2,2-difluoro-1-hydroxy-7-((trifluoromethyl)sulfonyl)-2,3-dihydro-1H-inden-4-yl)oxonio)-5-fluoropyridine 1-oxide] has an IC50 [1] of 16 nM.

`N#Cc1cncc(Oc2ccc(S(=N)(=O)C(F)(F)F)c3c2CC(F)(F)[C@H]3O)c1` (stereo partly drawn) [Example 314, 5-(((1S)-2,2-difluoro-1-hydroxy-7-(S-(trifluoromethyl)sulfonimidoyl)-2,3-dihydro-1H-inden-4-yl)oxy)nicotinonitrile] showed an IC50 [1] of 25 nM.

With `N#Cc1cncc(Oc2ccc(S(=N)(=O)C(F)(F)F)c3c2CC(F)(F)[C@H]3O)c1` (stereo partly drawn) [Example 315, 5-(((1S)-2,2-difluoro-1-hydroxy-7-(S-(trifluoromethyl)sulfonimidoyl)-2,3-dihydro-1H-inden-4-yl)oxy)nicotinonitrile] the IC50 [1] was 23.2 nM and the EC50 (786-O-Hif-Luc cells) was 110 nM.

Work on “(1R,3S)-4-(3-chloro-5-fluorophenoxy)-3-(hydroxymethyl)-7-((trifluoromethyl)sulfonyl)-2,3-dihydro-1H-inden-1-ol [Compound 281]” yielded an IC50 [1] of 730 nM.

Compound “[[(1R,3R)-7-(3-cyano-5-fluoro-phenoxy)-1,2,2-trifluoro-3-hydroxy-indan-4-yl]-methyl-oxo-λ^6-sulfanylidene]cyanamide [Compound 320]” has an IC50 [1] of 1570 nM.

Work on “[[(1R,3R)-7-(3-cyano-5-fluoro-phenoxy)-1,2,2-trifluoro-3-hydroxy-indan-4-yl]-methyl-oxo-λ^6-sulfanylidene]cyanamide [Compound 322]” yielded an IC50 [1] of 9800 nM.
